Assay results: ChEMBL document CHEMBL4346716, “Synthesis of novel andrographolide beckmann rearrangement derivatives and evaluation of their HK2-related anti-inflammatory activities” (Eur J Med Chem, 2019)

B1: Hexokinase-2 (Homo sapiens), P52789 (protein)
chain: MIASHLLAYFFTELNHDQVQKVDQYLYHMRLSDETLLEISKRFRKEMEKGLGATTHPTAAVKMLPTFVRSTPDGTEHGEFLALDLGGTNFRVLWVKVTDNGLQKVEMENQIYAIPEDIMRGSGTQLFDHIAECLANFMDKLQIKDKKLPLGFTFSFPCHQTKLDESFLVSWTKGFKSSGVEGRDVVALIRKAIQRRGDFDIDIVAVVNDTVGTMMTCGYDDHNCEIGLIVGTGSNACYMEEMRHIDMVEGDEGRMCINMEWGAFGDDGSLNDIRTEFDQEIDMGSLNPGKQLFEKMISGMYMGELVRLILVKMAKEELLFGGKLSPELLNTGRFETKDISDIEGEKDGIRKAREVLMRLGLDPTQEDCVATHRICQIVSTRSASLCAATLAAVLQRIKENKGEERLRSTIGVDGSVYKKHPHFAKRLHKTVRRLVPGCDVRFLRSEDGSGKGAAMVTAVAYRLADQHRARQKTLEHLQLSHDQLLEVKRRMKVEMERGLSKETHASAPVKMLPTYVCATPDGTEKGDFLALDLGGTNFRVLLVRVRNGKWGGVEMHNKIYAIPQEVMHGTGDELFDHIVQCIADFLEYMGMKGVSLPLGFTFSFPCQQNSLDESILLKWTKGFKASGCEGEDVVTLLKEAIHRREEFDLDVVAVVNDTVGTMMTCGFEDPHCEVGLIVGTGSNACYMEEMRNVELVEGEEGRMCVNMEWGAFGDNGCLDDFRTEFDVAVDELSLNPGKQRFEKMISGMYLGEIVRNILIDFTKRGLLFRGRISERLKTRGIFETKFLSQIESDCLALLQVRAILQHLGLESTCDDSIIVKEVCTVVARRAAQLCGAGMAAVVDRIRENRGLDALKVTVGVDGTLYKLHPHFAKVMHETVKDLAPKCDVSFLQSEDGSGKGAALITAVACRIREAGQR

Columns and labels:
RAW264.7 = test: Antiinflammatory activity in mouse RAW264.7 cells assessed as inhibition of LPS-induced NO production preincubated for 3 hrs followed by LPS addition measured after 24 hrs by Griess assay; assay type: functional, cell-based
Hexokinase-2 = biological target: T1, Hexokinase-2 (Homo sapiens, UniProt P52789); test: Inhibition of recombinant human HK2 expressed in Escherichia coli BL21(DE3) using glucose as substrate preincubated for 10 mins followed by substrate addition in presence of ATP by G6PDH/NADP coupled assay
T1 sequence (P52789 whole entry): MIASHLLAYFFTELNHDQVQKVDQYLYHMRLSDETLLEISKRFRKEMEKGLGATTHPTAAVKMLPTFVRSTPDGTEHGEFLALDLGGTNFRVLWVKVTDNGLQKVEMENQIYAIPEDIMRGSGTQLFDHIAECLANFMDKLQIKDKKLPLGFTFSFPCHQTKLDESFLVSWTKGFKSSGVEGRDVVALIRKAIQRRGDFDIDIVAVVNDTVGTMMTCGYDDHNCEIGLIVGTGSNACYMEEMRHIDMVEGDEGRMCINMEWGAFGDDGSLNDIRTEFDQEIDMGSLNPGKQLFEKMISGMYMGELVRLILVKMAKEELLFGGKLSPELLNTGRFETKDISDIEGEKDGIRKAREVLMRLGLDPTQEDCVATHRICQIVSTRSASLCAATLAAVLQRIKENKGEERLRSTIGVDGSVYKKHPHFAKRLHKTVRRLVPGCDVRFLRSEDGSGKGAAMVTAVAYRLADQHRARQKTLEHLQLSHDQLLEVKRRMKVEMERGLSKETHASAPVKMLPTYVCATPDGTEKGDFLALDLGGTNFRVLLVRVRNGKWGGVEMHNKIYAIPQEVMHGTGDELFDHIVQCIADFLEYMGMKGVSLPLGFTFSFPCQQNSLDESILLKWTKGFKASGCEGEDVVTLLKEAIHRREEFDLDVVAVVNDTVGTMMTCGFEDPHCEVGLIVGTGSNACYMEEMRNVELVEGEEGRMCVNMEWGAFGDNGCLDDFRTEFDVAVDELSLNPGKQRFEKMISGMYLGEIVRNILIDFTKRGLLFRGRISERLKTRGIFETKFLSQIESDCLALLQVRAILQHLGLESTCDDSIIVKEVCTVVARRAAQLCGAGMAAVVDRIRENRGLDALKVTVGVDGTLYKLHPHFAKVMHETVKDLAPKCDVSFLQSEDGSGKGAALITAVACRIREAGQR

[1] = compound: C=C1CC[C@H]2[C@@](C)(CCC(=O)N[C@@]2(C)COC(=O)CCCC[C@@H]2CCSS2)[C@@H]1/C=C/C1=CCOC1=O; test: Non competitive inhibition of recombinant human HK2 expressed in Escherichia coli BL21(DE3) assessed as Vmax using 6.25 uM glucose as substrate by Lineweaver-Burk double reciprocal plot analysis (reference value: 0.012 OD/min)
[2] = compound: C=C1CC[C@H]2[C@@](C)(CCC(=O)N[C@@]2(C)COC(=O)CCCC[C@@H]2CCSS2)[C@@H]1/C=C/C1=CCOC1=O; test: Non competitive inhibition of recombinant human HK2 expressed in Escherichia coli BL21(DE3) assessed as Km using 3.125 uM glucose as substrate by Lineweaver-Burk double reciprocal plot analysis (reference value: 0.64 mM)
[3] = compound: C=C1CC[C@H]2[C@@](C)(CCC(=O)N[C@@]2(C)COC(=O)CCCC[C@@H]2CCSS2)[C@@H]1/C=C/C1=CCOC1=O; test: Non competitive inhibition of recombinant human HK2 expressed in Escherichia coli BL21(DE3) assessed as Vmax using 12.5 uM ATP as substrate by Lineweaver-Burk double reciprocal plot analysis (reference value: 0.019 OD/min)
[4] = compound: C=C1CC[C@H]2[C@@](C)(CCC(=O)N[C@@]2(C)COC(=O)CCCC[C@@H]2CCSS2)[C@@H]1/C=C/C1=CCOC1=O; test: Non competitive inhibition of recombinant human HK2 expressed in Escherichia coli BL21(DE3) assessed as Vmax using 3.125 uM glucose as substrate by Lineweaver-Burk double reciprocal plot analysis (reference value: 0.012 OD/min)
[5] = compound: C=C1CC[C@H]2[C@@](C)(CCC(=O)N[C@@]2(C)COC(=O)CCCC[C@@H]2CCSS2)[C@@H]1/C=C/C1=CCOC1=O; test: Non competitive inhibition of recombinant human HK2 expressed in Escherichia coli BL21(DE3) assessed as Km using 6.25 uM ATP as substrate by Lineweaver-Burk double reciprocal plot analysis (reference value: 1.62 mM)
[6] = compound: C=C1CC[C@H]2[C@@](C)(CCC(=O)N[C@@]2(C)COC(=O)CCCC[C@@H]2CCSS2)[C@@H]1/C=C/C1=CCOC1=O; test: Non competitive inhibition of recombinant human HK2 expressed in Escherichia coli BL21(DE3) assessed as Vmax using 12.5 uM glucose as substrate by Lineweaver-Burk double reciprocal plot analysis (reference value: 0.012 OD/min)
[7] = compound: C=C1CC[C@H]2[C@@](C)(CCC(=O)N[C@@]2(C)COC(=O)CCCC[C@@H]2CCSS2)[C@@H]1/C=C/C1=CCOC1=O; test: Non competitive inhibition of recombinant human HK2 expressed in Escherichia coli BL21(DE3) assessed as Km using 3.125 uM ATP as substrate by Lineweaver-Burk double reciprocal plot analysis (reference value: 1.62 mM)
[8] = compound: C=C1CC[C@H]2[C@@](C)(CCC(=O)N[C@@]2(C)COC(=O)CCCC[C@@H]2CCSS2)[C@@H]1/C=C/C1=CCOC1=O; test: Non competitive inhibition of recombinant human HK2 expressed in Escherichia coli BL21(DE3) assessed as Km using 6.25 uM glucose as substrate by Lineweaver-Burk double reciprocal plot analysis (reference value: 0.64 mM)
[9] = compound: C=C1CC[C@H]2[C@@](C)(CCC(=O)N[C@@]2(C)COC(=O)CCCC[C@@H]2CCSS2)[C@@H]1/C=C/C1=CCOC1=O; test: Non competitive inhibition of recombinant human HK2 expressed in Escherichia coli BL21(DE3) assessed as Km using 12.5 uM ATP as substrate by Lineweaver-Burk double reciprocal plot analysis (reference value: 1.62 mM)
[10] = compound: C=C1CC[C@H]2[C@@](C)(CCC(=O)N[C@@]2(C)COC(=O)CCCC[C@@H]2CCSS2)[C@@H]1/C=C/C1=CCOC1=O; test: Non competitive inhibition of recombinant human HK2 expressed in Escherichia coli BL21(DE3) assessed as Vmax using 6.25 uM ATP as substrate by Lineweaver-Burk double reciprocal plot analysis (reference value: 0.019 OD/min)
[11] = compound: C=C1CC[C@H]2[C@@](C)(CCC(=O)N[C@@]2(C)COC(=O)CCCC[C@@H]2CCSS2)[C@@H]1/C=C/C1=CCOC1=O; test: Non competitive inhibition of recombinant human HK2 expressed in Escherichia coli BL21(DE3) assessed as Vmax using 3.125 uM ATP as substrate by Lineweaver-Burk double reciprocal plot analysis (reference value: 0.019 OD/min)
[12] = compound: C=C1CC[C@H]2[C@@](C)(CCC(=O)N[C@@]2(C)COC(=O)CCCC[C@@H]2CCSS2)[C@@H]1/C=C/C1=CCOC1=O; test: Non competitive inhibition of recombinant human HK2 expressed in Escherichia coli BL21(DE3) assessed as Km using 12.5 uM glucose as substrate by Lineweaver-Burk double reciprocal plot analysis (reference value: 0.64 mM)

Molecule	IC50 (RAW264.7)	IC50 (Hexokinase-2)	other results
C=C1CC[C@H]2[C@@](C)(CCC(=O)N[C@@]2(C)COC(=O)c2ccc([N+](=O)[O-])cc2)[C@@H]1/C=C/C1=CCOC1=O	33.5 µM	> 50 µM	
C=C1CC[C@H]2[C@@](C)(CCC(=O)N[C@@]2(C)COC(=O)c2cccnc2)[C@@H]1/C=C/C1=CCOC1=O	> 50 µM	> 50 µM	
C=C1CC[C@H]2[C@@](C)(CC[C@@H](OC(=O)[C@@H](N)Cc3ccccc3)[C@@]2(C)NC=O)[C@@H]1/C=C/C1=CCOC1=O	> 50 µM	> 50 µM	
C=C1CC[C@H]2[C@@](C)(CC[C@@H](OC(=O)c3ccccc3)[C@@]2(C)NC=O)[C@@H]1/C=C/C1=CCOC1=O	50 µM	> 50 µM	
C=C1CC[C@H]2[C@@](C)(CC[C@@H](OC(=O)c3ccc([N+](=O)[O-])cc3)[C@@]2(C)NC=O)[C@@H]1/C=C/C1=CCOC1=O	> 50 µM	> 50 µM	
C=C1CC[C@H]2[C@@](C)(CC[C@@H](OC(=O)[C@H]3CCCN3)[C@@]2(C)NC=O)[C@@H]1/C=C/C1=CCOC1=O	> 50 µM	26.1 µM	
C=C1CC[C@H]2[C@@](C)(CCC(=O)N[C@@]2(C)COC(=O)c2ccccc2)[C@@H]1/C=C/C1=CCOC1=O	> 50 µM	> 50 µM	
C=C1CC[C@H]2[C@@](C)(CCC(=O)N[C@@]2(C)CO)[C@@H]1/C=C/C1=CCOC1=O	> 50 µM	> 50 µM	
C[C@]12CCC(=O)C=C1CC[C@@H]1[C@@H]2[C@@H](O)C[C@@]2(C)[C@H]1CC[C@]2(O)C(=O)CO [HYDROCORTISONE]	52.4 µM		
C=C1CC[C@H]2[C@@](C)(CC[C@@H](OC(=O)CN)[C@@]2(C)NC=O)[C@@H]1/C=C/C1=CCOC1=O	> 50 µM	> 50 µM	
C=C1CC[C@H]2[C@@](C)(CC[C@@H](OC(=O)c3cccnc3)[C@@]2(C)NC=O)[C@@H]1/C=C/C1=CCOC1=O	> 50 µM	> 50 µM	
C=C1CC[C@H]2[C@@](C)(CCC(=O)N[C@@]2(C)COC(=O)[C@@H]2CCCN2)[C@@H]1/C=C/C1=CCOC1=O	> 50 µM	> 50 µM	
C=C1CC[C@H]2[C@@](C)(CC[C@@H](OC(=O)CCCC[C@@H]3CCSS3)[C@@]2(C)NC=O)[C@@H]1/C=C/C1=CCOC1=O	> 50 µM	> 50 µM	
C=C1CC[C@@H]2[C@](C)(CO)[C@H](O)CC[C@@]2(C)[C@@H]1C/C=C1/C(=O)OC[C@H]1O [ANDROGRAPHOLIDE]	14.4 µM	> 50 µM	
C=C1CC[C@H]2[C@@](C)(CC[C@@H](O)[C@@]2(C)NC=O)[C@@H]1/C=C/C1=CCOC1=O	> 50 µM	> 50 µM	
C=C1CC[C@H]2[C@@](C)(CC[C@@H](OC(=O)c3ccccc3[N+](=O)[O-])[C@@]2(C)NC=O)[C@@H]1/C=C/C1=CCOC1=O	> 50 µM	> 50 µM	
C=C1CC[C@H]2[C@@](C)(CCC(=O)N[C@@]2(C)COC(=O)[C@H](N)Cc2ccccc2)[C@@H]1/C=C/C1=CCOC1=O	> 50 µM	4.8 µM	
C=C1CC[C@H]2[C@@](C)(CC[C@@H](OC(=O)C(N)CC(C)C)[C@@]2(C)NC=O)[C@@H]1/C=C/C1=CCOC1=O (single isomer, unassigned)	> 50 µM	> 50 µM	
C=C1CC[C@H]2[C@@](C)(CCC(=O)N[C@@]2(C)COC(=O)c2ccccc2[N+](=O)[O-])[C@@H]1/C=C/C1=CCOC1=O	> 50 µM	> 50 µM	
C=C1CC[C@H]2[C@@](C)(CC[C@@H](OC(=O)CNC)[C@@]2(C)NC=O)[C@@H]1/C=C/C1=CCOC1=O	> 50 µM	> 50 µM	
C=C1CC[C@H]2[C@@](C)(CCC(=O)N[C@@]2(C)COC(=O)[C@H](N)CC(C)C)[C@@H]1/C=C/C1=CCOC1=O	> 50 µM	> 50 µM	
B1			Vmax (optical density/minute) [1]: 0.005; Km [2]: 685 µM; Vmax (optical density/minute) [3]: 0.005; Vmax (optical density/minute) [4]: 0.007; Km [5]: 1280 µM; Vmax (optical density/minute) [6]: 0.004; Km [7]: 1280 µM; Km [8]: 695 µM; Km [9]: 1210 µM; Vmax (optical density/minute) [10]: 0.007; Vmax (optical density/minute) [11]: 0.012; Km [12]: 657 µM
